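Assay format: 96-well plates, 48-hour exposure. TGI marks complete inhibition of growth.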

TGI data for 9 molecules are collected here from PubChem BioAssay (NCI).

Among the test systems are NCI/ADR-RES ovarian; ACHN renal; MCF7 breast; A549 NSCLC; MOLT-4 leukemia; SF-268 CNS; RPMI-8226 leukemia; SN12C renal; MDA-MB-435; A498 renal; HT29 colon; SW-620 colon; SNB-19 CNS; CAKI-1 renal.
Assay in all cases: NCI-60 cell line screen, 48 h

Turning to `Nc1nc(NNc2ccc(Cl)c(Cl)c2)cc(=O)[nH]1`, the TGI in the test on NCI/ADR-RES ovarian is over 100 µM; with ACHN renal it was over 100 µM; in the test with MCF7 breast it was 72.5 µM; in the test on A549 NSCLC it was over 100 µM; in the test on MOLT-4 leukemia, 90.3 µM; with SF-268 CNS, over 100 µM. The TGI was over 100 µM in the test with RPMI-8226 leukemia; over 100 µM in the test with SN12C renal; 74.1 µM with MDA-MB-435; over 100 µM in the test on A498 renal; over 100 µM in the test with HT29 colon; 61.1 µM in the test with SW-620 colon. Also, in the test on SNB-19 CNS, the TGI was over 100 µM.

For the molecule `COc1ccc(N2C(=O)/C(=C\c3cccc(Oc4ccccc4)c3)S(=O)(=O)C2c2ccccc2)cc1` (stereo unspecified), the TGI in the test with CAKI-1 renal is over 100 µM; in the test on NCI/ADR-RES ovarian, 46.2 µM; with ACHN renal it was over 100 µM; in the test with MCF7 breast it was over 100 µM; in the test on A549 NSCLC, over 100 µM; with MOLT-4 leukemia, 22.5 µM. Besides, the TGI in the test on SN12C renal, in the test with MDA-MB-435, in the test on A498 renal, in the test with SW-620 colon and with SNB-19 CNS was over 100 µM each time.

As for `Cc1cc2c(cc1C)[n+](=O)c(N1CCN(c3ccc([N+](=O)[O-])cc3)CC1)c(C#N)n2[O-]`, the TGI with CAKI-1 renal was over 100 µM; in the test with NCI/ADR-RES ovarian it was over 100 µM; in the test with ACHN renal, 50.8 µM; with MCF7 breast it was over 100 µM; in the test with A549 NSCLC it was over 100 µM; with SF-268 CNS it was over 100 µM. Besides, the TGI in the test with RPMI-8226 leukemia, in the test with SN12C renal, in the test on MDA-MB-435, with A498 renal, with HT29 colon and in the test on SW-620 colon was over 100 µM throughout. Also, in the test on SNB-19 CNS, the TGI worked out at 49.6 µM.

As to `O=C1CC(=O)c2c(Cl)sc(Cl)c21`, the TGI in the test on CAKI-1 renal, in the test on NCI/ADR-RES ovarian, with ACHN renal, in the test with MCF7 breast, with A549 NSCLC and with MOLT-4 leukemia was over 100 µM throughout. Also, the TGI in the test on SF-268 CNS, in the test on SN12C renal, with MDA-MB-435, in the test on A498 renal, in the test with HT29 colon and with SW-620 colon was over 100 µM each time.

In the case of `Cc1ccc2c(c1)[nH]c(=S)n2C=C1C(=O)CC(C)(C)CC1=O`, the TGI in the test with CAKI-1 renal, in the test on NCI/ADR-RES ovarian, in the test with ACHN renal, with MCF7 breast, in the test with A549 NSCLC and with MOLT-4 leukemia was over 100 µM in each case. Also, the TGI in the test on SF-268 CNS, in the test on SN12C renal, with MDA-MB-435, with A498 renal, in the test on HT29 colon and with SW-620 colon was over 100 µM in each case. The TGI in the test with SNB-19 CNS is over 100 µM.

In the case of `Cc1c[nH]c(C(=O)O)c1-c1ccc2c(-c3ccccc3)nc3ccccc3n12`, the TGI is over 100 µM in the test on CAKI-1 renal; 48.1 µM in the test with NCI/ADR-RES ovarian; over 100 µM in the test with ACHN renal; over 100 µM in the test on MCF7 breast; over 100 µM in the test with A549 NSCLC; 94.8 µM in the test with MOLT-4 leukemia. The TGI was over 100 µM in the test with SF-268 CNS; over 100 µM in the test with SN12C renal; 78.1 µM in the test on MDA-MB-435; 28.3 µM with A498 renal; 70.5 µM in the test on HT29 colon; over 100 µM with SW-620 colon.

For the molecule `O=C(CCc1ccc(O)c(O)c1)NCCc1cc(OCc2ccccc2)cc(OCc2ccccc2)c1`, the TGI in the test with CAKI-1 renal was 17.7 µM; in the test with NCI/ADR-RES ovarian, 64 µM; in the test on ACHN renal, 19.3 µM; in the test on MCF7 breast, 32.2 µM; in the test on A549 NSCLC, over 100 µM; in the test with SF-268 CNS, 42.3 µM. In addition, the TGI with RPMI-8226 leukemia is over 100 µM; in the test on SN12C renal, 28.6 µM; in the test with MDA-MB-435, 60.8 µM; with A498 renal, 37.7 µM; in the test on HT29 colon, 77.8 µM; in the test on SW-620 colon, 76.1 µM. This molecule yielded a TGI with SNB-19 CNS of 18 µM.

As to `CCCCCC(=O)OCC1(CO)C/C(=C\CC(C(C)C)C(C)C)C(=O)O1` (stereo unspecified), the TGI in the test on CAKI-1 renal was over 100 µM; with NCI/ADR-RES ovarian it was over 100 µM; with ACHN renal, over 100 µM; with MCF7 breast, over 100 µM; in the test with A549 NSCLC, over 100 µM; with MOLT-4 leukemia it was 61.8 µM. In addition, the TGI in the test with SF-268 CNS is over 100 µM; with SN12C renal, over 100 µM; with MDA-MB-435, over 100 µM; in the test with A498 renal, over 100 µM; in the test on HT29 colon, over 100 µM; with SW-620 colon, 64.4 µM. In addition, the TGI in the test with SNB-19 CNS was over 100 µM.

For `COc1ccc(C(C2C(=O)N(C)C(=O)N(C)C2=O)C(F)(F)C(=O)N(C)C)cc1` (stereo unspecified), the TGI in the test with CAKI-1 renal, in the test on NCI/ADR-RES ovarian, in the test on ACHN renal, in the test with MCF7 breast, in the test on A549 NSCLC and in the test with SF-268 CNS was over 100 µM throughout. Further, the TGI with RPMI-8226 leukemia, in the test on MDA-MB-435, with A498 renal, in the test on SW-620 colon and in the test with SNB-19 CNS was over 100 µM each time.
